Literature values as cited in article PMC12751000, “Dual Agonist/Antagonist Modulation of α9-Containing Nicotinic Acetylcholine Receptors by 2‑Ammoniumethyl Ethers of Stilbenol and Stilbenol Analogues” (Journal of Medicinal Chemistry, 2025).

Target: α7[L247T] mutant receptor
Set-up: method as in previous findings, citation number not given
Conditions: chick α7[L247T] mutant; ref: previous findings, citation number not given; cited from earlier work

For `CC[N+](CC)(CC)CCOc1ccc(/C=C/c2ccccc2)cc1` [Compound 1, 2-triethylammonium ethyl ether of 4-stilbenol], the EC50 is given as 0.2 nM.
